The test system of the assay is house mice, Mus musculus. The assay can be described thus: Laboratory T-tube bioassay: behavioral responses of mice (first choice, time spent). The format is in vivo. The conditions noted are these: female mice. The source says:
A laboratory experimental apparatus was constructed to test the behavioral responses of mice to the compositions described herein. The experimental design is depicted in FIG. 4 and includes three clear Plexiglas chambers: release chamber (1: 40 cm×20 cm×30 cm for placement of a mouse at the onset of a bioassay), and response chambers (3a and 3b: each 60 cm×30 cm×40 cm) interconnected by a Pyrex glass T-tube (2; stem: 65 cm long, side arms: 45 cm long, all 10 cm in diameter). Each response chamber housed a test stimulus in a Petri dish (4a, 4b; 3 cm diam.). For each replicate, a single mouse was deprived of food, but not water, for 4-6 h before being placed into chamber 1, which was illuminated by dim red light to facilitate observations of the mouse's position. The mouse was allowed to enter the stem of the T-tube (2) on its own accord in response to test stimuli, which were randomly assigned to response chamber 3a or 3b.
Both response chambers were fitted with a Petri dish (4a, 4b) containing a Whatman #1 filter paper disk (25 mm diam.) treated with a randomly assigned treatment stimulus or control stimulus. For each bioassay, a single mouse was tested and the following data were recorded: (1) the treatment or control chamber the mouse entered first with all four paws (“first-choice data”); and (2) the position of the mouse at each of 30 30-sec intervals after its first entry into the T-tube. Position data were then used to calculate the proportion of time a mouse spent in the treatment or control chamber (“time-spent data”).
Following each replicate, the chambers and T-tube were cleaned with a Percept® disinfectant detergent (Virox Technologies Inc. Mississaugua ON L5N 5M4, Canada) and wiped with 70% ethanol.
First-choice data and the time spent in a trap box quadrant were analyzed using a χ^2 test with Yates' correction for continuity (α=0.05) and the Student's t-test (α=0.05), respectively.
In Experiment 5, the laboratory experimental design of FIG. 4 was used to evaluate the responses of female mice to synthetic androstenone. For Experiment 5, the treatment stimulus consisted of filter paper treated with 4 μg of synthetic androstenone (see Experiments 1 and 2), and the control stimulus consisted of filter paper treated with the 50 μl of ether without androstenone.
In Experiment 6, the laboratory experimental design of FIG. 4 was used to evaluate the responses of male mice to blends of synthetic progesterone and estrogen. For Experiment 6, the treatment stimulus consisted of filter paper treated with a 4-μg blend of the synthetic hormones progesterone and estrogen formulated in 50 μl of ether at a ratio of 100:1 and a control stimulus which consisted of filter paper treated with 50 μl of ether.
In Experiments 9 to 11, the laboratory experimental design of FIG. 4 was used to evaluate the responses of male mice to synthetic progesterone and estrogen. For the Experiments, the treatment stimulus consisted of filter paper treated with a blend of the synthetic progesterone (50 ng) and estrogen (25 ng) (hereinafter “synthetic hormone blend”) (Experiment 9), progesterone alone (75 ng) (Experiment 10) or estrogen alone (75 ng) (Experiment 11) formulated in 50 μl ether. The control stimulus consisted of filter paper treated with 50 μl of ether for each of Experiments 9 to 11.
Experiment 12 used the laboratory experimental apparatus of FIG. 4 to test choices of female mice between filter paper treated with 75 ng of synthetic testosterone (the treatment stimulus) formulated in 50 μl of ether and control filter paper treated with 50 μl of ether. Experiment 13 was identical to Experiment 12 except that the treatment stimulus consisted of filter paper treated with 75 ng of synthetic androstenone.

Where [1] appears, read: Experiment 5, 4 μg synthetic androstenone.
Where [2] appears, read: Experiment 13, 75 ng synthetic androstenone.
[3] abbreviates: Experiment 12, 75 ng synthetic testosterone.

As for `C[C@]12CCC(=O)C[C@@H]1CC[C@@H]1[C@@H]2CC[C@]2(C)C=CC[C@@H]12` [androstenone, 5α-androst-16-en-3-one], under setting [1], the “first entry into baited response chamber vs control chamber” value is listed as “as often as” and the “time spent in response chamber with stimulus vs control chamber” value is “significantly more time”. For the setting “Experiment 5, 4 μg synthetic androstenone vs 50 μl ether”, the “effect on female mice” value is recorded as “positive effect”. Under setting [2], the “first entry into baited chamber vs control chamber” value is given as “as often as”, the “responses by female mice compared with testosterone” value was “much weaker” and the “time spent in baited chamber vs control chamber” value is recorded as “slightly more time”.

As to `C[C@]12CC[C@H]3[C@@H](CCC4=CC(=O)CC[C@@]43C)[C@@H]1CC[C@@H]2O` [testosterone, (8R,9S,10R,13S,14S,17S)-17-hydroxy-10,13-dimethyl-1,2,6,7,8,9,11,12,14,15,16,17-dodecahydrocyclopenta[a]phenanthren-3-one, reference compound], under setting [3], the “first entry into baited chamber vs control chamber” value is recorded as “significantly more often”, the “preference in time spent for the treated chamber over control” value was “over threefold preference” and the “time spent in baited chamber vs control chamber” value is reported as “significantly more time”. Besides, the “effect on female mice” value (Experiment 12, 75 ng synthetic testosterone in 50 μl ether vs ether) is reported as “very positive effect”.

These data come from US11185077B2, “Attractants for rodents” (priority 2016, dated 2021).
